The term half-life denotes the time needed for the level to fall by half in the phase considered. Usually AUC stands for concentration integrated over time. Usually Cmax stands for the maximum level reached in the sampled fluid or tissue. As a reminder, the MRT is a mean duration of stay, worked out from the concentration-time curve. The term Tmax denotes the time at which the peak concentration occurs.

In data set [1] the test system is HBVL180M/S202G/M204V. The arrangement: method as in PMID 26122273. The conditions noted are these: entecavir-resistant variant; cited from earlier work.
Data set [2] relates to HBVA181T/N236T. The arrangement: method as in PMID 26122273. The conditions noted are these: adefovir dipivoxil-resistant variant; cited from earlier work.
Data set [3] deals with wild-type HBV. Also on record: method as in PMID 26122273. The conditions noted are these: cited from earlier work.
Data set [4] in a line: Pharmacokinetic study of oral co-administration of SK14-061a and ETV in rats. The data set is classed as in vivo. The method, then: At stipulated times after the administration (15 min, 45 min, 90 min, 3, 6 and 9 hr), venous blood samples were collected by means of a heparinized syringe (0.25ml). The blood samples were centrifuged (3,000 rpm, 10 min) to obtain plasma. […] All data are expressed as the mean ± S.D. Statistical analyses for multiple comparisons were determined by an analysis of variance (two-way ANOVA) using the Bonferroni correction for multiple comparisons. A probability value of p < 0.05 was considered to be significant. A non-compartment model was used for the pharmacokinetic analysis. Parameters were calculated using the program of a moment analysis developed by Tabata et al. Half-life (t1/2) were calculated from the elimination phase. Area under the concentration-time curve (AUC) were calculated using the following equations: AUC=∫0∞Cdt

Setting [5] is: rats, p.o., ETV 1 mg/kg alone (SK14-061a (-)).

Molecules are shown by their SMILES. Read-outs that look alike come from different tables or passages of the source.

Turning to `N#C[C@]1(CO)O[C@@H](n2cnc3c(=O)[nH]c(N)nc32)C[C@@H]1O` [4′-CN-2′-deoxyguanosine], the “activity against HBVL180M/S202G/M204V” value in data set [1] is “highly active”. In addition, the “activity against HBVA181T/N236T” value in data set [2] is listed as “highly active”. Besides, in data set [3], the “activity against wild-type HBV” value is “highly active”.
For the compound `C=C1[C@H](CO)[C@@H](O)C[C@@H]1n1cnc2c(=O)[nH]c(N)nc21` [ETV, entecavir], the half-life in data set [4] (rat, plasma, po, 1 mg/kg) was 1.98 ± 0.51 h. The AUC in data set [4] (rat, plasma, po, 1 mg/kg, read-out: AUC) amounted to 492 ± 31.5 ng·h/mL. In addition, the CL/F in data set [4] (rat, plasma, po, 1 mg/kg, read-out: CL/F (converted)) was 34 mL/min/kg. The Cmax in data set [4] (rat, plasma, po, 1 mg/kg, read-out: Cmax) worked out at 135 ± 27.4 ng/mL. Moreover, in data set [4] (rat, plasma, po, 1 mg/kg, read-out: MRT), the MRT turned out to be 3.24 ± 0.68 h. The Tmax in data set [4] (rat, plasma, po, 1 mg/kg, read-out: tmax) was 1.25 ± 0.43 h. Further, in data set [4] (setting [5]), the area under the curve (AUC) turned out to be 261 ± 16.2 ng·h/mL, the CL/F was 64.2 ± 4.17 mL/min/kg, the peak concentration (Cmax) amounted to 147 ± 5.82 ng/mL and the MRT was 1.35 ± 0.03 h. In data set [4] (setting [5]), the Tmax is 0.75 h and the t1/2 was found to be 0.72 ± 0.05 h.

(Values after article PMC5991393, “Pharmacokinetic properties of a novel inosine analog, 4′-cyano-2′-deoxyinosine, after oral administration in rats” (PLoS ONE, 2018).)
